Experimental data published in patent US20260130933A1, “PHARMACEUTICAL COMPOSITION FOR PREVENTION OR TREATMENT OF NEPHROPATHY AND/OR DIABETES MELLITUS, COMPRISING ENAVOGLIFLOZIN” (DAEWOONG PHARMACEUTICAL CO., LTD., priority 2022, published 2026).

Assay: Example 2: phase 3 trial, enavogliflozin 0.3 mg vs dapagliflozin 10 mg once a day for 24 weeks added to metformin in patients with type 2 diabetes (same efficacy, exploratory and safety endpoints)
Assay type: in vivo, human
Description: Subjects who met the inclusion/exclusion criteria were administered a placebo of the clinical trial drug under single-blind (subject blinding) conditions during a 2-week run-in period while continuing to receive metformin. […] The randomized subjects were administered two tablets of the clinical trial drug for each administration group once a day, and then visited the institution at weeks 6, 12, 18, and 24 during the 24-week administration period to conduct efficacy and safety evaluations.
• 1. Change in HbA1c at week 24 after administration of clinical trial drug compared to Visit 2 (randomization)
• 1. Change in HbA1c at each time point of weeks 6, 12, and 18 after administration of clinical trial drug compared to Visit 2 (randomization) • 2. Change in FPG at each time point of weeks 6, 12, 18, and 24 after administration of clinical trial drug compared to Visit 2 (randomization) • 3. Proportion of subjects achieving HbA1c<7% at each time point of weeks 6, 12, 18, and 24 after administration of clinical trial drug • 4. Proportion of subjects achieving HbA1c<6.5% at each time point of weeks 6, 12, 18, and 24 after administration of clinical trial drug • 5. Proportion of subjects achieving therapeutic response (HbA1c change (HbA1c at Visit 2-HbA1c at each evaluation time point)>0.5% or HbA1c<7% at each evaluation time point compared to Visit 2 (randomization)) at each time point of weeks 6, 12, 18 and 24 after administration of clinical trial drug
• 1. Change in fasting c-peptide at each time point of weeks 6, 12, 18, and 24 after administration of clinical trial drug compared to Visit 2 (randomization) • 2. Change in body weight at each time point of weeks 6, 12, 18, and 24 after administration of clinical trial drug compared to Visit 2 (randomization) • 3. Change in fasting lipid concentration (total cholesterol, LDL-C, HDL-C, and triglycerides) at each time point of weeks 6, 12, 18, and 24 after administration of clinical trial drug compared to Visit 2 (randomization) • 4. Changes in systolic or diastolic blood pressure at each time point of weeks 6, 12, 18, and 24 after administration of clinical trial drug compared to Visit 2 (randomization) • 5. Changes in β-cell function and insulin resistance measured by HOMA-β and HOMA-IR at each time point of weeks 6, 12, 18, and 24 after administration of clinical trial drug compared to Visit 2 (randomization) • 6. Changes in renal function-related indicators (UACR, UGCR) measured by UACR at each time point of weeks 6, 12, 18, and 24 after administration of clinical trial drug compared to Visit 2 (randomization) • 7. Changes in obesity-related indicators (adiponectin, leptin) at each time point of weeks 6, 12, 18, and 24 after administration of clinical trial drug compared to Visit 2 (randomization)

[1] = week 6, per-protocol set, enavogliflozin 0.3 mg, dapagliflozin 10 mg
[2] = week 12, modified per-protocol set 1, enavogliflozin 0.3 mg, dapagliflozin 10 mg
[3] = week 12, per-protocol set, enavogliflozin 0.3 mg vs dapagliflozin 10 mg
[4] = week 12, per-protocol set, enavogliflozin 0.3 mg, dapagliflozin 10 mg

In the case of `OC[C@H]1O[C@@H](c2cc(Cc3ccc(C4CC4)cc3)c(Cl)c3c2CCO3)[C@H](O)[C@@H](O)[C@@H]1O` [Enavogliflozin, (2S,3R,4R,5S,6R)-2-(7-chloro-6 (4-cyclopropylbenzyl)-2,3-dihydrobenzofuran-4-yl)-6-(hydroxymethyl)tetrahydro-2H-pyran-3,4,5-triol], the “Change from baseline in fasting c-peptide, ANCOVA LS mean (SE)” value [1] is reported as −0.07(0.02) ng/mL, the “Change from baseline in fasting c-peptide, Mean (SD)” value [1] is reported as −0.06(0.19) ng/mL and the “Change from baseline in fasting c-peptide, Median” value [1] is reported as -0.03 ng/mL. The “FPG, Mean (SD)” value [1] was 118.44 mg/dL, the “FPG, Median” value [1] was 115.00 mg/dL and the “HbA1c, Mean (SD)” value [1] was 7.13%. The “HbA1c, Median” value [1] was 6.98%, the “Subjects achieving HbA1c target of <6.5%, (%)” value [1] was “(12.63) %” and the “Subjects achieving therapeutic glycemic response, (%)” value [1] was “(78.95) %”. The “body weight, Mean (SD)” value [1] was 68.61(11.27) kg, the “body weight, Median” value [1] was 67.30 kg and the “fasting c-peptide, Mean (SD)” value [1] was 0.66(0.24) ng/mL. The “fasting c-peptide, Median” value [1] was 0.60 ng/mL, the “FPG change from baseline, LS mean (SE)” value (week 12) was −29.70(1.96) mg/dL and the “HOMA-IR change from baseline, LS mean (SE)” value (week 12) was −1.58(0.17). The “HOMA-β change from baseline, LS mean (SE)” value (week 12) was 5.57(3.08), the “HbA1c change from baseline, LS mean (SE)” value (week 12) was −0.83(0.06) % p and the “LDL-C change from baseline, LS mean (SE)” value (week 12) was 1.86(1.68) mg/dL. The “Subjects achieving HbA1c target of <7%” value (week 12) was “(68.09) %”, the “Subjects achieving HbA1c<6.5%” value (week 12) was 15.96% and the “Subjects achieving therapeutic response (HbA1c change >0.5% or HbA1c<7%)” value (week 12) was 88.30%. For the same compound, the “UACR change from baseline, LS mean (SE)” value (week 12) was −21.65(7.38) g/kg, the “UGCR change from baseline, LS mean (SE)” value (week 12) was 64.70(2.58) mg/mg and the “diastolic blood pressure change from baseline, LS mean (SE)” value (week 12) was −4.19(0.79) mmHg. For the same compound, the “fasting c-peptide change from baseline, LS mean (SE)” value (week 12) was −0.08(0.02) ng/ml, the “leptin change from baseline, LS mean (SE)” value (week 12) was −2.64(0.49) ng/mL and the “FPG change from baseline, LS mean difference” value (week 12, vs dapagliflozin) was 0.42 mg/dL. For the same compound, the “HDL-C change from baseline, LS mean difference” value (week 12, vs dapagliflozin) was 0.06 mg/dL, the “HOMA-IR change from baseline, LS mean difference” value (week 12, vs dapagliflozin) was 0.02 and the “HOMA-β change from baseline, LS mean difference” value (week 12, vs dapagliflozin) was −3.17. For the same compound, the “HbA1c change from baseline, LS mean difference” value (week 12, vs dapagliflozin) was −0.03 % p, the “LDL-C change from baseline, LS mean difference” value (week 12, vs dapagliflozin) was 1.30 mg/dL and the “Odds ratio for achieving HbA1c<6.5%” value (week 12, vs dapagliflozin) was 0.51. For the same compound, the “Odds ratio for achieving HbA1c<7%” value (week 12, vs dapagliflozin) was 1.21, the “Odds ratio for achieving therapeutic response” value (week 12, vs dapagliflozin) was 2.04 and the “UACR change from baseline, LS mean difference” value (week 12, vs dapagliflozin) was −18.27. The “UGCR change from baseline, LS mean difference” value (week 12, vs dapagliflozin) was 19.57 mg/mg, the “body weight change from baseline, LS mean difference” value (week 12, vs dapagliflozin) was -0.19 kg and the “diastolic blood pressure change from baseline, LS mean difference” value (week 12, vs dapagliflozin) was 0.16 mmHg. For the same compound, the “fasting c-peptide change from baseline, LS mean difference” value (week 12, vs dapagliflozin) was 0.01 ng/mL, the “leptin change from baseline, LS mean difference” value (week 12, vs dapagliflozin) was 0.07 ng/mL and the “systolic blood pressure change from baseline, LS mean difference” value (week 12, vs dapagliflozin) was 0.26 mmHg. For the same compound, the “total cholesterol change from baseline, LS mean difference” value (week 12, vs dapagliflozin) was 3.01 mg/dL, the “triglyceride change from baseline, LS mean difference” value (week 12, vs dapagliflozin) was 2.57 mg/dL and the “Subjects achieving HbA1c target of <7%” value (week 12, listed as enavogliflozin) was 68.09%. For the same compound, the “Change from baseline in total cholesterol, ANCOVA LS mean difference” value (week 12, modified per-protocol set 1, enavogliflozin 0.3 mg vs dapagliflozin 10 mg) was 3.01 mg/dL, the “Change from baseline in Total cholesterol, ANCOVA LS mean (SE)” value [2] was 7.26(1.98) mg/dL and the “Change from baseline in Total cholesterol, Mean (SD)” value [2] was 5.74(18.70) mg/dL. The “Change from baseline in total cholesterol, Median” value [2] was 6.00 mg/dL, the “fasting Total cholesterol, Mean (SD)” value [2] was 157.39(31.50) mg/dL and the “fasting Total cholesterol, Median” value [2] was 150.00 mg/dL. For the same compound, the “Change from baseline in FPG, ANCOVA LS mean difference” value [3] was 0.42 mg/dL, the “Change from baseline in HbA1c, ANCOVA LS mean difference” value [3] was −0.03 % p and the “Change from baseline in body weight, ANCOVA LS mean difference” value [3] was -0.19 kg. For the same compound, the “Change from baseline in fasting c-peptide, ANCOVA LS mean difference” value [3] was 0.01 ng/mL, the “Odds ratio for achieving HbA1c target of <6.5%, logistic regression model” value [3] was 0.51 and the “Odds ratio for achieving therapeutic glycemic response, logistic regression model” value [3] was 2.04. For the same compound, the “Change from baseline in FPG, ANCOVA LS mean (SE)” value [4] was -29.70 mg/dL, the “Change from baseline in FPG, Mean (SD)” value [4] was -27.74 mg/dL and the “Change from baseline in FPG, Median” value [4] was -26.00 mg/dL. For the same compound, the “Change from baseline in HbA1c, ANCOVA LS mean (SE)” value [4] was −0.83 % p, the “Change from baseline in HbA1c, Mean (SD)” value [4] was −0.77 % p and the “Change from baseline in HbA1c, Median” value [4] was −0.65 % p. For the same compound, the “Change from baseline in body weight, ANCOVA LS mean (SE)” value [4] was −2.81(0.23) kg, the “Change from baseline in body weight, Mean (SD)” value [4] was −2.78(2.48) kg and the “Change from baseline in body weight, Median” value [4] was -2.75 kg. The “Change from baseline in fasting c-peptide, ANCOVA LS mean (SE)” value [4] was −0.08(0.02) ng/mL, the “Change from baseline in fasting c-peptide, Mean (SD)” value [4] was −0.07(0.21) ng/mL and the “Change from baseline in fasting c-peptide, Median” value [4] was -0.07 ng/mL. The “FPG, Mean (SD)” value [4] was 117.00 mg/dL.
